According to patent publication US6455520B1, “Benzamide derivatives and their use as cytokine inhibitors” (Astra Zeneca AB, priority 1998, dated 2002):

How the values were obtained:
[1] = biological target: T1, p38α (Homo sapiens, UniProt Q16539); experiment: In vitro enzyme assay, p38α; type: biochemical; conditions: read-out: IC50 against p38α
T1 construct: c-myc (N); 6His (N); made in house; host or cells: E. coli (PET vectors)
Method: The ability of compounds of the invention to inhibit the enzyme p38 kinase was assessed. Activity of test compounds against each of the p38α and p38β isoforms of the enzyme was determined.
Human recombinant MKK6 (GenBank Accesion Number G1209672) was isolated from Image clone 45578 (Genomics, 1996, 33, 151) and utilised to produce protein in the form of a GST fusion protein in a pGEX vector using analogous procedures to those disclosed by J. Han et al., Journal of Biological Chemistry, 1996, 271, 2886-2891. p38α (GenBank Accession Number G529039) and p38β (GenBank Accession Number G1469305) were isolated by PCR amplification of human lymphoblastoid cDNA (GenBank Accession Number GM1416) and human foetal brain cDNA [synthesised from mRNA (Clontech, catalogue no. 6525-1) using a Gibco superscript cDNA synthesis kit] respectively using oligonucleotides designed for the 5′ and 3′ ends of the human p38α and p38β genes using analogous procedures to those described by J. Han et al., Biochimica et Biophysica Acta, 1995, 1265, 224-227 and Y. Jiang et al., Journal of Biological Chemistry, 1996, 271, 17920-17926.
Both p38 protein isoforms were expressed in e coli in PET vectors. Human recombinant p38α and p38β isoforms were produced as 5′ c-myc, 6His tagged proteins. Both MKK6 and the p38 proteins were purified using standard protocols: the GST MKK6 was purified using a glutathione sepharose column and the p38 proteins were purified using nickel chelate columns.
The p38 enzymes were activated prior to use by incubation with MKK6 for 3 hours at 30° C. The unactivated coli-expressed MKK6 retained sufficient activity to fully activate both isoforms of p38. The activation incubate comprised p38α (10 μl of 10 mg/ml) or p38β (10 μl of 5 mg/ml) together with MKK6 (10 μl of 1 mg/ml), ‘Kinase buffer’ [100 μl; pH 7.4 buffer comprising Tris (50 mM), EGTA (0.1 mM), sodium orthovanadate (0.1 mM) and β-mercaptoethanol (0.1%)] and MgATP (30 μl of 50 mM Mg(OCOCH3)2 and 0.5 mM ATP). This produced enough activated p38 enzyme for 3 Microtiter plates.
Test compounds were solubilised in DMSO and 10 μl of a 1:10 diluted sample in ‘Kinase Buffer’ was added to a well in a Microtiter plate. For single dose testing, the compounds were tested at 10 μM. ‘Kinase Assay Mix’ [30 μl; comprising Myelin Basic Protein (Gibco BRL cat. no. 1322B-010; 1 ml of a 3.33 mg/ml solution in water), activated p38 enzyme (50 μl ) and ‘Kinase Buffer’ (2 ml)] was then added followed by ‘Labelled ATP’ [10 μl; comprising 50 μM ATP, 0.1 μCi ^33P ATP (Amersham International cat. no. BF1000) and 50 mM Mg(OCOCH3)2]. The plates were incubated at room temperature with gentle agitation. Plates containing p38α were incubated for 90 min and plates containing p38β P were incubated for 45 min. Incubation was stopped by the addition of 50 μl of 20% trichloroacetic acid (TCA). The precipitated protein was phosphorylated by p38 kinase and test compounds were assessed for their ability to inhibit this phosphorylation. The plates were filtered using a Canberra Packard Unifilter and washed with 2% TCA, dried overnight and counted on a Top Count scintillation counter.
Test compounds were tested initially at a single dose and active compounds were retested to allow IC50 values to be determined.

[2] = tested on: TNFα production by human peripheral blood mononuclear cells; experiment: PBMC test: inhibition of LPS-stimulated TNFα production; type: cell-based
Method: The ability of compounds of this invention to inhibit TNFα production was assessed by using human peripheral blood mononuclear cells which synthesise and secrete TNFα when stimulated with lipopolysaccharide.
Peripheral blood mononuclear cells (PBMC) were isolated from heparinised (10 units/ml heparin) human blood by density centrifugation (Lymphoprep™; Nycomed). Mononuclear cells were resuspended in culture medium [RPMI 1640 medium (Gibco) supplemented with 50 units/ml penicillin, 50 μg/ml streptomycin, 2 mM glutamine and 1% heat-inactivated human AB serum (Sigma H-1513)]. Compounds were solubilised in DMSO at a concentration of 50 mM, diluted 1:100 in culture medium and subsequently serial dilutions were made in culture medium containing 1% DMSO. PBMCs (2.4×10^5 cells in 160 μl culture medium) were incubated with 20 μl of varying concentrations of test compound (triplicate cultures) or 20 μl culture medium containing 1% DMSO (control wells) for 30 minutes at 37° C. in a humidified (5%CO2/95% air) incubator (Falcon 3072; 96 well flat-bottom tissue culture plates). 20 μl lipopolysaccharide [LPS E.Coli 0111:B4 (Sigma L-4130), final concentration 10 μg/ml] solubilised in culture medium was added to appropriate wells. 20 μl culture medium was added to “medium alone” control wells. Six “LPS alone” and four “medium alone” controls were included on each 96 well plate. Varying concentrations of a known TNFα inhibitor were included in each test, i.e. an inhibitor of the PDE Type IV enzyme (for example see Semmler, J. Wachtel. H and Endres, S., Int. J. Immunopharmac. (1993), 15(3), 409-413) or an inhibitor of pro TNFα convertase (for example, see McGeehan, G. M. et al. Nature (1994) 370, 558-561). Plates were incubated for 7 hours at 37° C. (humidified incubator) after which 100 μl of the supernatant was removed from each well and stored at −70° C. (96 well round-bottom plates; Corning 25850). TNFα levels were determined in each sample using a human TNFα ELISA (see WO92/10190 and Current Protocols in Molecular Biology, vol 2 by Frederick M. Ausbel et al., John Wiley and Sons Inc.).
% inhibition=(LPS alone−medium alone)−(test concentration−medium alone)/(LPS alone−medium alone)×100

[3] = tested on: TNFα production in human whole blood; experiment: Human Whole Blood test: inhibition of LPS-stimulated TNFα production; type: cell-based
Method: The ability of the compounds of this invention to inhibit TNFα production was also assessed in a human whole blood assay. Human whole blood secretes TNFα when stimulated with LPS. This property of blood forms the basis of an assay which is used as a secondary test for compounds which profile as active in the PBMC test.
Heparinised (10 units/ml) human blood was obtained from volunteers. 160 μl whole blood were added to 96 well round-bottom plates (Corning 25850). Compounds were solubilised and serially diluted in RPMI 1640 medium (Gibco) supplemented with 50 units/ml penicillin, 50 μg/ml streptomycin and 2 mM glutamine, as detailed above. 20 μl of each test concentration was added to appropriate wells (triplicate cultures). 20 μl of RPMI 1640 medium supplemented with antibiotics and glutamine was added to control wells. Plates were incubated for 30 minutes at 37° C. (humidified incubator), prior to addition of 20 μl LPS (final concentration 10 μg/ml). RPMI 1640 medium was added to control wells. Six “LPS alone” and four “medium alone” controls were included on each plate. A known TNFα synthesis/secretion inhibitor was included in each test. Plates were incubated for 6 hours at 37° C. (humidified incubator). […] TNFα levels were measured by ELISA (see WO92/10190 and Current Protocols in Molecular Biology, vol 2 by Frederick M. Ausbel et al., John Wiley and Sons Inc.). […]

T1 sequence (Q16539 whole entry): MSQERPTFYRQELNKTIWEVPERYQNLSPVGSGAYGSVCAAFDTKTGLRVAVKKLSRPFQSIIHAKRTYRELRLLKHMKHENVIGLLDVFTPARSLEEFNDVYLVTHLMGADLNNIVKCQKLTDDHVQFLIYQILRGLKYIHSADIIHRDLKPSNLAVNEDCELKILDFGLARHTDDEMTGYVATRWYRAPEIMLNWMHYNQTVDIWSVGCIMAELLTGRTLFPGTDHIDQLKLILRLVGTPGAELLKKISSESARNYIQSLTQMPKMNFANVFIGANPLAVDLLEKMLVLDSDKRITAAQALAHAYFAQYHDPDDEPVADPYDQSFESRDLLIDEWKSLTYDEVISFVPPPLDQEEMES

Row | Structure (SMILES) | IC50 [1] | IC50 [2] | melting point | IC50 [3]
1 | Cc1ccc(NC(=O)c2ccno2)cc1NC(=O)c1cccc(CN2CCN(C)CC2)c1 [N-{4-methyl-3-[3-(4-methylpiperazin-1-ylmethyl)benzamido]phenyl}isoxazole-5-carboxamide] | ~800 nM | ~1000 nM | – | –
2 | Cc1ccc(NC(=O)c2ccco2)cc1NC(=O)c1cccc(CN2CCN(C)CC2)c1 [N-{4-methyl-3-[3-(4-methylpiperazin-1-ylmethyl)benzamido]phenyl}furan-2-carboxamide] | ~1000 nM | ~4000 nM | – | –
3 | Cc1ccc(NC(=O)c2ccc3ncccc3c2)cc1NC(=O)c1cccc(OCCN2CCOCC2)c1 [Example 13, N-{3-[3-(2-morpholinoethoxy)benzamido]-4-methylphenyl}quinoline-6-carboxamide] | – | – | 216 to 217 °C | –
4 | CCN(CC)Cc1ccc(C(=O)Nc2cc(NC(=O)c3ccnc(N4CCOCC4)c3)ccc2C)cc1 [N-[3-(4-diethylaminomethylbenzamido)-4-methylphenyl]-2-morpholinopyridine-4-carboxamide] | ~200 nM | < 500 nM | – | ~10000 nM

More lines, in order of falling IC50 [1], values ahead:

Row | IC50 [1] | IC50 [2] | melting point | IC50 [3] | Structure (SMILES)
5 | ~100 nM | < 500 nM | – | ~7000 nM | Cc1ccc(NC(=O)c2ccnc(N3CCOCC3)c2)cc1NC(=O)c1cccc(CN2CCN(C)CC2)c1 [N-{3-[3-(4-methylpiperazin-1-ylmethyl)benzamido]-4-methylphenyl}-2-morpholinopyridine-4-carboxamide]
6 | ~100 nM | < 500 nM | – | – | Cc1ccc(NC(=O)c2ccnc(N3CCCC3)c2)cc1NC(=O)c1cccc(CN2CCN(C)CC2)c1 [N-{3-[3-(4-methylpiperazin-1-ylmethyl)benzamido]-4-methylphenyl}-2-pyrrolidin-1-ylpyridine-4-carboxamide]
